What all share (format): cell-based, human
In one assay the test system is A549-MCTSs. As to the kind of experiment: 3D-A549-MCTS viability (PrestoBlue). The settings on record: 72 h, PrestoBlue, poly-HEMA coated wells. The method, then:
To obtain multiple spheroids, 10.0×10^4 A549 cells were seeded in non-adherent conditions on poly-HEMA coated 96 wells (final volume, 200 μL) for four days. After drug treatment (72 h), the cell viability was determined using PrestoBlue Cell Viability Reagent (Thermo Fisher Scientific, Frederick, MD, USA) (See: Casagrande, N.; Celegato, M.; Borghese, C.; Mongiat, M.; Colombatti, A.; Aldinucci, D. Preclinical Activity of the Liposomal Cisplatin Lipoplatin in Ovarian Cancer. Clin Cancer Res 2014, 20, 5496-5506, which is incorporated herein by reference in its entirety).
3D-MCTSs are a model for in vitro drug testing (See: Zanoni, M.; Piccinini, F.; Arienti, C.; Zamagni, A.; Santi, S.; Polico, R.; Bevilacqua, A.; Tesei, A. 3D Tumor Spheroid Models for in Vitro Therapeutic Screening: A Systematic Approach to Enhance the Biological Relevance of Data Obtained. Sci Rep 2016, 6, 19103, which is incorporated herein by reference in its entirety) and to test drug tissue penetration. Thus, the effects of complex 3 in A549-MCTSs were determined by cultivating tumor cells in non-adherent conditions on poly-HEMA coated wells. […] Representative micro-photographs of A549-MCTSs treated with complex 3 (0.3-5 μM) and with cisplatin (15-250 μM) are shown in FIG. 9C.

For another assay, the system named is TrxR. As to the kind of experiment: Thioredoxin reductase activity in treated cell lysates. The settings on record: A549 cells treated 24 h. The method, then:
Cells were treated with complex 3 (24 h) and then lysed in 50 mM Tris-HCl pH 7.6, 0.1% Triton X-100, 0.9% NaCl to obtain the TrxR activity. TrxR (EC 1.8.1.9) was assayed using the Thioredoxin Reductase Assay Kit (Sigma-Aldrich). Enzyme activity was determined by reading the absorbance at 412 nm using a spectrophotometer (Biomate 3 Thermo Spectronic, Thermo Electronic Corporation, Monza, Italy) and normalized to the protein concentration, determined with the Bio-Rad protein assay (Protein Assay Dye Reagent Concentrate, Bio-Rad Laboratories, Segrate, Italy).

For a further assay, the system named is A549 cells. As to the kind of experiment: Cell cycle analysis (propidium iodide, flow cytometry). The settings on record: A549, 24 h, 0.06-0.60 μM. The method, then: 2.0×10^5 A549 cells were seeded in 6-well plates in a complete medium and treated with the complex 3. Assay results were detected by flow cytometry on a BD FACSCanto II flow cytometer. Data were analyzed using BD FACSDiva v.8.0.1 software (BD Biosciences) unless otherwise indicated. Tumor cells were treated for 72 h with complex 3, then stained for 15 minutes with FITC Annexin-V (Thermo Fisher Scientific) and 7AAD (BD Pharmingen, Milan, Italy). Activated caspase-3,7 was detected using the CaspaTag Caspase-3,7 assay (Merck Millipore) after an incubation of 24 h with complex 3. For B-cell lymphoma/leukemia-2 protein (Bcl-2) and Bcl-2 associated x protein (Bax) analysis, cells were treated for 72 h with C3, then fixed and permeabilized (FIX & PERM Cell Fixation & Cell Permeabilization Kit, Life Technologies). […] The distribution of cells in different cell cycle phases was quantified using ModFit LT 4.0 software (Verity Software House, Topsham, ME, USA) (See: Sulaiman, A. A. A.; Casagrande, N.; Borghese, C.; Corona, G.; Isab, A. A.; Ahmad, S.; Aldinucci, D.; Altaf M. Design, Synthesis, and Preclinical Activity in Ovarian Cancer Models of New Phosphanegold(I)—N-Heterocyclic Carbene Complexes. J Med Chem 2022, 65, 14424-14440, which is incorporated herein by reference in its entirety). […]
Background: Flow cytometry measures light scatter and fluorescence of single cells or particles in a stream.

Molecules are shown by their SMILES.

From US20250222009A1, “DINUCLEAR GOLD(I) COMPLEXES FOR TREATING CANCER” (KING FAHD UNIVERSITY OF PETROLEUM AND MINERALS, priority 2024, published 2025) come the findings set out here.

Broadly, the IC50 is the midpoint of a concentration-inhibition curve. Low values mean inhibition by little substance, high ones a need for much substance.

The compound `CC(C)c1cccc(C(C)C)c1-n1ccn(-c2c(C(C)C)cccc2C(C)C)[c]1=[Au-][P+](CCNCC[P+]([Au-]=[c]1n(-c2c(C(C)C)cccc2C(C)C)ccn1-c1c(C(C)C)cccc1C(C)C)(C1CCCCC1)C1CCCCC1)(C1CCCCC1)C1CCCCC1` [Complex 3, [(Au(IPr))2(C28H24P2)](PF6)2] showed an IC50 with A549-MCTSs of 950 nM. The TrxR enzymatic activity result in the assay with TrxR is listed as “not modified”. In the assay on A549 cells, the “cells in G0/G1 phase of the cell cycle” value is listed as “accumulation” and the “cells in S phase of the cell cycle” value is given as “decrease”.
